From patent publication US20250353855A1, “HETEROCYCLIC AND HETEROARYL COMPOUNDS FOR TREATING HUNTINGTON'S DISEASE” (PTC THERAPEUTICS, INC., priority 2022, published 2025) come the findings set out here.

By IC50 is commonly meant the concentration needed to halve the response being measured.

For the first assay, the system named is Endogenous Huntingtin Protein. As to the kind of experiment: Endogenous Huntingtin Protein Assay (ELISA-based MSD electrochemiluminescence). The assay is classed as cell-based. The following applies: MSD plates coated with MW1 (expanded polyglutamine) or MAB2166 capture antibody; lysates. Here is the method: Compounds of Formula (T) were tested using the Meso Scale Discovery (MSD) Assay provided in International Application No. PCT/US2016/066042, filed on Dec. 11, 2016 and claiming priority to U.S. Provisional Application 62/265,652 filed on Dec. 10, 2015, the entire contents of which are incorporated herein by reference.
The Endogenous Huntingtin Protein assay used in Example 1 was developed using the ELISA-based MSD electrochemiluminescence assay platform.
Meso Scale Discovery (MSD) 96-well or 384-well plates were coated overnight at 4° C. with MW1 (expanded polyglutamine) or MAB2166 monoclonal antibody (for capture) at a concentration of 1 μg/mL in PBS (30 μL per well). Plates were then washed three times with 300 μL wash buffer (0.05% Tween-20 in PBS) and blocked (100 μL blocking buffer; 5% BSA in PBS) for 4-5 hours at room temperature with rotational shaking and then washed three times with wash buffer.
Samples (25 μL) were transferred to the antibody-coated MSD plate and incubated overnight at 4° C. After removal of the lysates, the plate was washed three times with wash buffer, and 25 μL of #5656S (Cell signaling; rabbit monoclonal) secondary antibody (diluted to 0.25 μg/mL in 0.05% Tween-20 in blocking buffer) was added to each well and incubated with shaking for 1 Hour at room temperature. Following incubation with the secondary antibody, the wells were rinsed with wash buffer after which 25 μL of goat anti-rabbit SULFO TAG secondary detection antibody (required aspect of the MSD system) (diluted to 0.25 μg/mL in 0.05% Tween-20 in blocking buffer) was added to each well and incubated with shaking for 1 hour at room temperature. After rinsing three times with wash buffer, 150 μL of read buffer T with surfactant (MSD) were added to each empty well, and the plate was imaged on a SI 6000 imager (MSD) according to manufacturers' instructions provided for 96- or 384-well plates.
Background: ELISA stands for enzyme-linked immunosorbent assay.
In the case of `Cc1ncc2cc(-c3cc4ccn([C@H]5CC(C)(C)NC(C)(C)[C@H]5F)c4nn3)c(O)cc2n1` [Cpd 15, 6-{7-[(3S,4S)-3-fluoro-2,2,6,6-tetramethylpiperidin-4-yl]-7H-pyrrolo[2,3-c]pyridazin-3-yl}-2-methylquinazolin-7-ol], the IC50 was < 100 nM. Same read-out and setting: for `Cc1nc2cc(O)c(-c3cc4ccn([C@@H]5CCNC(C)(C)[C@@H]5F)c4nn3)cc2s1` [Cpd 19, 6-{7-[(3R,4R)-3-fluoro-2,2-dimethylpiperidin-4-yl]-7H-pyrrolo[2,3-c]pyridazin-3-yl}-2-methyl-1,3-benzothiazol-5-ol] the value was < 100 nM; for `Cc1nc2cc(O)c(-c3cc4ccn([C@@H]5CCNC(C)(C)[C@@H]5F)c4nn3)cc2o1` [Cpd 20, 6-{7-[(3R,4R)-3-fluoro-2,2-dimethylpiperidin-4-yl]-7H-pyrrolo[2,3-c]pyridazin-3-yl}-2-methyl-1,3-benzoxazol-5-ol], < 100 nM.

The assay is the same for the next values; noted with them: MSD plates coated with MW1 (expanded polyglutamine) or MAB2166 capture antibody; lysates; read-out: IC50.
Regarding `Cc1nc2cc(O)c(-c3cc4ncn([C@H]5CC(C)(C)NC6(CC6)C5)c4nn3)cc2s1` [Cpd 11, 6-{7-[(7S)-5,5-dimethyl-4-azaspiro[2.5]octan-7-yl]-7H-imidazo[4,5-c]pyridazin-3-yl}-2-methyl-1,3-benzothiazol-5-ol], the IC50 is < 100 nM.

In the case of `Cc1nc2cc(O)c(-c3cc4nnn(C5CC(C)(C)NC6(CC6)C5)c4nn3)cc2s1` (stereo not drawn) [Cpd 12, 6-[3-(5,5-dimethyl-4-azaspiro[2.5]octan-7-yl)-3H-[1,2,3]triazolo[4,5-c]pyridazin-6-yl]-2-methyl-1,3-benzothiazol-5-ol], the half-maximal inhibitory concentration (IC50) was < 100 nM. With `CCc1nc2cc(-c3cc4ccn([C@H]5CC(C)(C)NC(C)(C)[C@H]5F)c4nn3)c(O)cc2o1` [Cpd 13, 2-ethyl-5-{7-[(3S,4S)-3-fluoro-2,2,6,6-tetramethylpiperidin-4-yl]-7H-pyrrolo[2,3-c]pyridazin-3-yl}-1,3-benzoxazol-6-ol], the concentration for half-maximal inhibition (IC50) was < 100 nM. As to `CCc1nc2cc(-c3cc4ccn([C@H]5CC(C)(C)NC(C)(C)[C@H]5F)c4nn3)c(O)cc2s1` [Cpd 14, 2-ethyl-5-{7-[(3S,4S)-3-fluoro-2,2,6,6-tetramethylpiperidin-4-yl]-7H-pyrrolo[2,3-c]pyridazin-3-yl}-1,3-benzothiazol-6-ol], the IC50 is < 100 nM. On to `CC1(C)C[C@H](n2ccc3cc(-c4cc5cccnc5cc4O)nnc32)[C@H](F)C(C)(C)N1` [Cpd 16, 6-{7-[(3S,4S)-3-fluoro-2,2,6,6-tetramethylpiperidin-4-yl]-7H-pyrrolo[2,3-c]pyridazin-3-yl}quinolin-7-ol], for which the IC50 was < 100 nM. `CC1(C)C[C@H](n2ccc3cc(-c4cc5ncccc5cc4O)nnc32)[C@H](F)C(C)(C)N1` [Cpd 17, 7-{7-[(3S,4S)-3-fluoro-2,2,6,6-tetramethylpiperidin-4-yl]-7H-pyrrolo[2,3-c]pyridazin-3-yl}quinolin-6-ol]: the IC50 was < 100 nM. Still for that read-out and setting: for `Cn1ccc(=O)c2cc(-c3cc4ccn([C@H]5CC(C)(C)NC(C)(C)[C@H]5F)c4nn3)c(O)cc21` [Cpd 18, 6-{7-[(3S,4S)-3-fluoro-2,2,6,6-tetramethylpiperidin-4-yl]-7H-pyrrolo[2,3-c]pyridazin-3-yl}-7-hydroxy-1-methylquinolin-4(1H)-one] the value was < 100 nM. In the case of `CC1(C)C[C@H](n2ccc3cc(-c4cc5c(Cl)ccnc5cc4O)nnc32)[C@H](F)C(C)(C)N1` [Cpd 21, 4-chloro-6-{7-[(3S,4S)-3-fluoro-2,2,6,6-tetramethylpiperidin-4-yl]-7H-pyrrolo[2,3-c]pyridazin-3-yl}quinolin-7-ol], the IC50 lay in the range of 100 to 500 nM. On to `Cc1nc2cc(-c3cc4ncn([C@H]5CC(C)(C)NC6(CC6)C5)c4nn3)c(O)cc2o1` [Cpd 23, 5-{7-[(7S)-5,5-dimethyl-4-azaspiro[2.5]octan-7-yl]-7H-imidazo[4,5-c]pyridazin-3-yl}-2-methyl-1,3-benzoxazol-6-ol], for which the IC50 lay within 100 to 500 nM.
